Test results: a melting point compilation (Tetko et al.; mined from patent text by program, amines drawn as free bases though some values may be those of a salt)

| SMILES | melting point [°C] |
| --- | --- |
| COc1cc2c(c(OC)c1OC)COc1c(C(F)(F)F)nn(-c3ccc(S(N)(=O)=O)cc3)c1-2 | 130 |
| CN(C)C1(c2ccccc2)CCC(CNC(=O)N2CCC(c3c[nH]c4ccccc34)C2)CC1 (configuration not stated) | 103 to 106 |
| COc1cc2c(cc1O)CCN(C(=O)c1ccc(OC)c(OC)c1)C2 | 132 to 133 |
| CCOP(OCC)c1ccccc1P(c1cc(C(C)(C)C)c(OC)c(C(C)(C)C)c1)c1cc(C(C)(C)C)c(OC)c(C(C)(C)C)c1 | 104 to 105 |
| CCOC(=O)CCc1cc(S(C)(=O)=O)cc(-c2nc(=O)c3ccc(Cl)cc3s2)n1 | 240 |
| CCOC(=O)C(C)C(O)(c1ccc(OC)cc1)c1ccc(OC)cc1 (configuration not stated) | 67 to 69 |
| Cc1cc(-c2cn(-c3cccc(OCCn4ccnc4)c3)c3ncnc(N)c23)ccc1OCc1ccccc1 | 158 to 160 |
| CC(CO)N=C(c1ccccc1)c1cc(Cl)ccc1NC(=O)CN (configuration not stated) | 168 to 172 |
| CC(CS)C(=O)N1CCC=C1C(=O)O (configuration not stated) | 112 to 114 |
| Cn1c(=O)c(Oc2ccccc2F)cc2cnc(N)nc21 | 241 to 243 |
| N#Cc1ccc(NC2CCN(Cc3cccc(C(F)(F)F)c3)CC2)nn1 | 170 |
| O=C(Cl)Oc1ccc(-c2ccccc2)cc1 | 36 |
| CCc1cccc2c3c([nH]c12)C1(CC(=O)O)CC1CC3 (configuration not stated) | 154 to 156 |
| CNC(=O)[C@@H]1C[C@H](SCc2ccc(OC)cc2)CN1 | 53 to 54 |
| COc1ccc(-n2nc(CO)cc2-c2ccc(C)cc2)cc1 | 100 to 102 |
| COCOc1ccc(-c2ncc3ncc(NC(=O)c4cccnc4)cc3n2)cc1 | 232 |
| Cc1nccn1-c1cccc(C2=Nc3cc(O)c(-c4ccccc4F)cc3NC(=O)C2)c1 | > 250 |
| Fc1cccc(F)c1-c1nc2ccccc2n1Cc1ccccc1 | 124 |
| O=C(CC12CC3CC(CC(C3)C1)C2)Nc1c(Cl)ccc2ncccc12 | 219 to 220 |
| O=Cc1cc(O)c(OCc2ccccc2)cc1O | 147 to 148 |
| ClCCN1C2C=C(c3ccc4ccccc4c3)CC1CC2 (configuration not stated) | 122 to 123 |
| CC(=O)OC1=CC(NC(=O)CCc2ccc(Cl)cc2Cl)C(=O)N(C)c2ccccc21 (configuration not stated) | 142 to 144 |
| COc1cc2nc(N3CCOCC3)n3cnnc3c2cc1OC | 216 to 218 |
| CCCCCCCCOC(=O)c1cnc(C(=O)O)cn1 | 142 to 143 |
| Cc1cccc(-c2[nH]c(C(C)C)nc2-c2cccc(-c3ccc4c(c3)CCCS4=O)c2)n1 (configuration not stated) | 136 to 139 |
| CN(C)C(c1ccccc1)C1CCCCC1(O)Cc1cccc(F)c1 (configuration not stated) | 146 to 147 |

| SMILES | melting point [°C] |
| --- | --- |
| CC(C)(C)OC(=O)CN1CCCNc2c1c(=O)c2=O | 167 to 168 |
| NS(=O)(=O)c1cc2[nH]ccc2cc1F | 181 to 182 |
| COc1ccc(C2CCCCC2)cc1-c1csc(NC(=O)N2CCN(C[C@@H]3CCCN(C4CC4)C3)CC2)n1 | 88 |
| Clc1ccc(-c2c(Cc3nc4ccccc4s3)cnn2-c2ccccc2)cc1 | 135 to 137 |
| COC(=O)C1(C)CN(C(=S)Nc2ccc(Cl)cc2)N=C1c1ccc(Cl)cc1 (configuration not stated) | 69 to 78 |
| COC1(C)CSC2C(NC(=O)Cc3ccccc3)C(=O)N2C1C(=O)OCC(Cl)(Cl)Cl (configuration not stated) | 132 to 133 |
| COc1ccc(C2=NN(C(=O)c3cccnc3)CC2)cc1 | 132 to 134 |
| N#Cc1c(N2CCN(C(=O)c3cccs3)CC2)c2cscc2[nH]c1=O | 263 |
| O=S1(=O)N(CCCl)c2cccc3c2N1CCC3 | 70 |
| CNC(=S)n1nc(NC(=O)c2ccccc2)nc1N | > 300 |
| CN1CCN(c2ccc(C(=O)NCCCCCCCCCCCCO[N+](=O)[O-])cn2)CC1 | 74 to 76 |
| CC(C)(S)C(N)P(C)(=O)O (configuration not stated) | 221 |
| CC(C)(C)OC(=O)NCc1ccc(N)cc1 | 74.4 |
| CN1C(=O)N(CC(COc2ccc(-c3ccc(S(N)(=O)=O)cc3)cc2)N(O)C=O)C(=O)C1(C)C (configuration not stated) | 203 to 205 |
| C[C@@H]1N=C(c2ccccc2)c2cc(C#CCCCC(=O)NO)ccc2N(C)C1=O | 101 to 103 |
| OCCN1CC=C(c2c[nH]c3ccccc23)CC1 | 164 to 165 |
| CCCCOc1cc(-n2c(=O)cc(C(F)(F)F)n(C)c2=O)c(F)cc1Br | 73 |
| COc1ccc(OC)c(Nc2nc(-c3cccc([N+](=O)[O-])c3)cs2)c1 | 154 |
| O=S(=O)(c1[nH]c(-c2ccc(Cl)cc2)c(S(=O)(=O)C(F)(F)F)c1Br)C(F)(F)F | 115 to 135 |
| CCCC(=O)Nc1cc(NC(=O)CCC)c2ccc(C)nc2c1OC(=O)CCC | 195 to 200 |
| O=C(Nc1cc2c(s1)-c1ccccc1OC2C1=CCCC=C1)C(F)(F)F (configuration not stated) | 174 to 176 |
| CCCN(CCC)C1Cc2cccc3c2n(c(=O)n3C)C1 (configuration not stated) | 83 to 85 |
| Cc1oc(-c2ccccc2)nc1CCNCc1ccc(C[C@@H](C(=O)O)n2cccc2)cc1 | 208 to 210 |
| ClC(=NNc1ccccc1)c1c(Cl)cccc1Cl | 95.5 to 96.5 |
| O=C(Cc1ccc2c(c1)OCO2)N[C@H]1CC[C@H](CCN2CCC(c3cccc4c3CCO4)CC2)CC1 | 209 |
| O=C(/C=C/c1cccc(S(=O)(=O)N2CCN(CC(c3ccccc3)c3ccccc3)CC2)c1)NO | 117 |

| SMILES | melting point [°C] |
| --- | --- |
| CCOC(=O)c1nc2cnn(CC)c2nc1C | 64 to 65 |
| Clc1ccc2nc(N3CCN(c4ncccc4Cl)CC3)[nH]c2c1 | 214 to 215 |
| N#Cc1c(Cl)ccc(C(=O)O)c1Cl | 230 to 232 |
| COC(=O)c1ccc(-c2ccc(C#N)cc2)nc1 | 142 to 144 |
| CCCOc1ccc(CNc2cc(C(=O)Nc3ccccc3)ccc2OC)cc1 | 154 to 156 |
| N=C(N)NC(=O)C[C@H]1c2cc(C(F)(F)F)ccc2C(=O)N1CC(F)(F)F | 122 |
| O=c1[nH]c(Cc2ccccc2)ccc1CCl | 142 to 145 |
| N#Cc1cccc(C2=Nc3cc(CO)c(-c4ccccc4F)cc3NC(=O)C2)c1 | 90 to 91 |
| O=C(F)[C@@H]1C[C@H](F)CN1C(=O)OCC1c2ccccc2-c2ccccc21 | 127 to 128 |
| COC(=O)c1n[nH]c2nc(N3CCN(C)CC3)ccc12 | 230 to 231 |
| NC(=O)N(O)C[C@H]1C[C@@H](c2ccccc2)C1 | 100 |
| C=CCCCc1cc(-c2ccc(F)cc2)nc(C)n1 | 44.5 to 45.5 |
| COc1ccc(CNS(C)(=O)=O)cc1OC | 78 to 81 |
| Cc1cc(Br)c(S(C)(=O)=O)cc1C(=O)N=C(N)N | 207 to 208 |
| Fc1cc2c(cc1F)CC(n1cc[nH]c1=S)CC2 (configuration not stated) | 206 to 207 |
| CC(=O)Nc1cccc(C)c1C(=O)O | 189 to 190 |
| COc1ccc(CCCCC(=O)O)cc1NC(=O)C[C@H]1O[C@H](c2cccc(OC)c2OC)c2cc(Cl)ccc2N(CC(C)(C)CO)C1=O | 136 to 138 |
| CCOP(=O)(/C=C/c1cn(-c2ccccc2)nc1NC)OCC | 132 to 133 |
| COc1c(C)cc(C(=O)c2ccc([N+](=O)[O-])cc2)cc1C | 131 to 132 |
| N=C(CF)Nc1cccc(C(N)=O)c1 | 219 to 220 |
| CCCCCCCCCCCCCCCc1cccc(OCC)c1C1NC(=O)NC(C)=C1C(=O)OC (configuration not stated) | 127 to 129 |
| CCOC(=O)COc1ccc(N2CCN(S(=O)(=O)c3ncn(C)c3Cl)CC2)cc1 | 148 to 149 |
| c1ccc(COc2ccc(-c3cc(NC(Cc4ccccc4)c4nnn[nH]4)ncn3)cc2)cc1 (configuration not stated) | 150 |
| CCN1CC=C(c2c[nH]c3ccc([N+](=O)[O-])cc23)CC1 | 188 to 190 |
| O=C1c2cc([N+](=O)[O-])cc([N+](=O)[O-])c2OC12CC2 | 158 to 161 |
| O=c1[nH]c2ncc(-c3ccnc(O)c3)nc2n1CC1CCCCC1 | 311 to 313 |

| SMILES | melting point [°C] |
| --- | --- |
| c1cncc(C2CCCCS2)c1 (racemic) | 49 |
| COC(=O)C1C(=O)N(Cc2ccc(Br)cc2F)C(=O)c2ccccc21 (configuration not stated) | 149 to 150 |
| CCC(=O)OC1(C)CCCC2C3C=CC(C3)C21 (configuration not stated) | 30 |
| CC(C)OC(=O)c1cc(-c2nn(C)c(C(F)(F)F)c2CF)c(F)cc1Cl | 74 |
| Cc1cccc(C(N)=O)c1SSc1c(C)cccc1C(N)=O | 189 to 190 |
| CS(=O)(=O)c1nnc(-c2ccccc2Nc2cccc(C(F)(F)F)c2)o1 | 144 to 148 |
| COc1cc2sc(C(=O)O)c(Cl)c2cc1OC | > 260 |
| O=C1C(=O)N2CCCc3cc([N+](=O)[O-])cc1c32 | 198 to 199 |
| O=C1N[C@H](Cc2cccc(OC(F)(F)C(F)F)c2)[C@H](c2ccc(Oc3ccccc3)cc2)O1 (racemic) | 90 to 91 |
| CN1CCN(C(=O)OC2C3=C(SCCS3)C(=O)N2c2ccc3ccc(Cl)cc3n2)CC1 (configuration not stated) | 192 |
| CC(C)(C)Cc1ccc(Oc2ccc(C(O)c3ccncc3)cc2)cc1 (configuration not stated) | 120 to 122 |
| COc1cc(Cl)c2c(=O)c(-c3ccccc3C)coc2c1 | 159 to 160 |
| Cc1cc(-c2cc(C(F)F)nn2-c2ccc(S(C)(=O)=O)c(F)c2)ccc1-c1cscn1 | 123 |
| CCc1cc(NC(=O)C(CSC(C)=O)Cc2ccccc2)cc(C(=O)O)c1 (configuration not stated) | 175 to 177 |
| CCOC(=O)c1cnc2c(cnn2Cc2ccncc2)c1O | 140 |
| Cc1ncsc1C(=O)Nc1ccc(-n2nc(C3CC3)cc2C2CC2)cc1 | 110 to 114 |
| CC(C)(C)OC(=O)N1CCCN(c2nc3ccccc3[nH]2)CC1 | 225 to 226 |
| CCCc1nc2c(N)nc(C)c(C)c2n1CCCO/N=C(\C)c1ccccc1 | 125 to 127 |
| CCn1nc(-c2nc(C#N)c(C#N)nc2-c2ccccc2)ccc1=O | 201 to 203 |
| CC1(C)c2cc(C#N)ccc2OC1N1CCOCC1 (configuration not stated) | 105 to 107 |
| CCOC(=O)c1cn(CC)c2cc(F)c(F)c(C)c2c1=O | 157 to 159 |
| CC[C@H]1c2cccn2-c2cc(F)c(F)cc2N1S(=O)(=O)c1ccc(O)c(C)c1 | 161 to 163 |
| O=C(O)c1cc2cc(Br)cc(Br)c2nc1NC(Cc1ccccc1)C(=O)O (configuration not stated) | 115 to 117 |
| O=C1C(=O)c2ccccc2C2=C1SCC1(CCN(CCOc3ccc(Cl)cc3)CC1)O2 | 131 to 133 |
